Source: US5716958A, “Amino acid derivative having anti-CCK activity” (Tobishi Pharmaceutical Co., Ltd., priority 1994, dated 1998)
Where two headings read alike, the source gives them in different places.

How the values were obtained:
[1] = tested on: extracted guinea pig ileum; experiment: Anti-CCK action in extracted guinea pig ileum (inhibition of CCK-8-induced contraction, Magnus tube); design: species or system guinea pig (Hartley strain, male); details: Cavia porcellus
Protocol: Anti-cholecystokinin (CCK) Action in Extracted Guinea Pig Ileum After sacrificing a male guinea pig (Hartley strain) by striking and exsanguination, a piece of extracted ileum was suspended from a Magnus tube, while applying tension of 0.5 g, containing 30 ml of Tyrode's solution (NaCl 136.9 mM, KCl 2.68 mM, CaCl2 1.8 mM, MgCl2 1.05 mM, NaH2 PO4 0.42 mM, NaHCO3 11.9 mM and glucose 5.55 mM) and ventilated with mixed O2 gas containing 5% CO2 at 37° C. Changes in contraction were recorded on smoked paper for isotonicity via a bevel. The piece of ileum was allowed to stand undisturbed for 30 minutes and then contracted by addition 1×10^-8 M CCK-8. After washing, this was repeated several times. After the contraction by CCK-8 had stabilized, the test compound was added. Contraction resulting from addition of 1×10^-8 M CCK was then measured 5 minutes later. The contraction caused by CCK-8 and the contraction caused by CCK-8 in the presence of the test compound at varying concentrations were compared, and the resulting IC50 values (concentration of test substance at which contraction caused by CCK-8 is inhibited by 50%) are shown in Table 2. The compound numbers shown in Table 2 indicate the target compounds according to the numbers of the embodiments.

CCK-B = target: T1, CCK-B (Rattus norvegicus, UniProt P30553); experiment: Central receptor (CCK-B) binding experiment, [^3 H]-CCK-8 binding inhibition; details: rat cerebrum homogenate, 0.2 nM [^3 H]-CCK-8, 60 minutes at 25° C
T1 construct: CCK-B receptors originating in the cell membrane of rat brain cells; from tissue; host or cells: rat cerebrum membranes (male rats, Japan Laboratory Animals)
T1 sequence (P30553 1-452): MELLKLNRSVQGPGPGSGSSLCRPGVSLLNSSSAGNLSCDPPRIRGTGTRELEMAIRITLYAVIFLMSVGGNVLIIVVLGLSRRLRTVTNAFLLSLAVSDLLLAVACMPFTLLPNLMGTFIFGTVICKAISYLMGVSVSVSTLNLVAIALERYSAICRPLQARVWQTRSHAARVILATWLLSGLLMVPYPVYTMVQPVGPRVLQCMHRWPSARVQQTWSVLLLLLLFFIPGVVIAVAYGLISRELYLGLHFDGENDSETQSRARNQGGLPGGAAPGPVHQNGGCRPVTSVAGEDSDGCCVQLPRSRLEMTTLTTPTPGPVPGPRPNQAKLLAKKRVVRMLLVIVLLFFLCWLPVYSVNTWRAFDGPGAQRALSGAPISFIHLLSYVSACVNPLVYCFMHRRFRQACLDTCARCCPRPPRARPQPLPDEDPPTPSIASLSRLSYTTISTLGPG
Protocol: (§1) Peripheral Receptor (CCK-A) and Central Receptor (CCK-B) Binding Experiment
(§2) The pancreas and cerebrum of male rats (Japan Laboratory Animals), which were sacrificed by decapitation and having body weights of 250-300 g, were extracted and immersed in cold Hepes buffer. After suspending these tissues using a Potter homogenizer, the suspension was centrifuged for 10 minutes at 48,000×g. The resulting residue was again suspended by addition of cold Hepes buffer and centrifuged for 10 minutes at 48,000×g. The resulting residue was transferred to cold incubation buffer.
(§3) A 1 ml aliquot of the homogenate was incubated for 60 minutes at 25° C. in the presence of 0.2 nM [^3 H]-CCK-8 and the test compound, in the presence of vehicle only (for measurement of 100% binding), or in the presence of 1 μM cold CCK-8 (for measurement of non-specific binding). Next, the reaction solution was promptly suction filtered using a Whatman glass GF/B filter immersed in Hepes buffer followed by washing the filter with cold Hepes buffer. Next, the glass filter was placed in Aquasol-2 followed by assay of radioactivity with a liquid scintillation counter.
(§4) The compound numbers shown in Table 3 indicate the target compounds according to the number of the embodiment.

CCK-A = target: T2, CCK-A (Rattus norvegicus, UniProt P30551); experiment: Peripheral receptor (CCK-A) binding experiment, [^3 H]-CCK-8 binding inhibition; details: for CCK-B/CCK-A: ratio of IC50 values CCK-B/CCK-A (selectivity for CCK-A), 60 min
T2 construct: CCK-A receptors prepared from the cell membranes of rat pancreas; from tissue; host or cells: rat pancreas membranes (male rats, Japan Laboratory Animals)
T2 sequence (P30551 1-444): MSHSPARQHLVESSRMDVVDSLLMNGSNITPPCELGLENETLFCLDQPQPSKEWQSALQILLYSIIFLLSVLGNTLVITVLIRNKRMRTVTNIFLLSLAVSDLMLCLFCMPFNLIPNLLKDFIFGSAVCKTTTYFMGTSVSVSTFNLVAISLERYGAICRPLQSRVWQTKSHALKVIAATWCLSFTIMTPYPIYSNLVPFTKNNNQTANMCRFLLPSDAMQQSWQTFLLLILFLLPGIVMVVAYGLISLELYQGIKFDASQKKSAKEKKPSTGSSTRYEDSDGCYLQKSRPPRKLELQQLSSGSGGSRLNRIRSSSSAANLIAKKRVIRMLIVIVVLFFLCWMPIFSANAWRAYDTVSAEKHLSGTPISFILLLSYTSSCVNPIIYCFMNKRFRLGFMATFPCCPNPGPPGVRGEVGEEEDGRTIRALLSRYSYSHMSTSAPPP
Protocol: as §1, §2, §3, §4

[2] = contraction by 1×10^-8 M CCK-8, test compound added 5 minutes before, extracted ileum, 37° C, read-out: Active IC50
[3] = rat pancreas homogenate, 0.2 nM [^3 H]-CCK-8, 60 minutes at 25° C, read-out: CCK-A IC50

Structure (SMILES) | IC50 (CCK-B) [nM] | IC50 (CCK-A; rat pancreas cell membranes, read-out: activity in binding experiment on CCK-A receptors prepared from the cell membranes of rat pancreas) [nM] | IC50 (CCK-A; [3]) [nM] | CCK-B/CCK-A (CCK-A) | IC50 [1, 2] [nM] | IC50 ([1]; extracted guinea pig ileum, read-out: IC50 with respect to the extracted guinea pig ileum (in vitro)) [nM]
O=C(N[C@@H](CSc1ncccc1C(=O)O)C(=O)N1CCN(C(c2ccccc2)c2ccccc2)CC1)c1cc2cc(O)ccc2[nH]1 [Compound 12-2, (R)-1-[3-(3-carboxypyridin-2-yl)thio-2-(5-hydroxyindol-2-yl)carbonylamino]propionyl-4-diphenylmethylpiperazine] | 42000 | 5 | 5 | 8400 | 27 | –
CCCCC(CCCC)N1CCN(C(=O)[C@H](CSc2ncccc2C(=O)O)NC(=O)c2cc3ccccc3[nH]2)CC1 [Compound 14-5, (R)-1-[3-(3-carboxypyridin-2-yl)thio-2-(indol-2-yl)carbonylamino]propionyl-4-(1-butylpentyl)piperazine] | 100000 | – | 170 | 588 | 260 | –
O=C(N[C@@H](CSc1ncccc1P(=O)(O)O)C(=O)N1CCN(C(c2ccccc2)c2ccccc2)CC1)c1cc2ccccc2[nH]1 [Compound 22-4, (R)-4-diphenylmethyl-1-[3-(3-phosphonopyridin-2-yl)thio-2-(indol-2-yl)carbonylamino]propionylpiperazine] | 56000 | – | 20 | 2800 | 36 | –
O=C(N[C@@H](Cc1ocnc1C(=O)O)C(=O)N1CCN(C(c2ccccc2)c2ccccc2)CC1)c1cc2ccccc2[nH]1 [Compound 27-5, (S)-1-[3-(4-carboxyoxazol-5-yl)-2-(indol-2-yl)carbonylamino]propionyl-4-diphenylmethylpiperazine] | 9600 | – | 180 | 53 | 190 | –

More lines, in order of falling IC50 (CCK-B), values ahead:

IC50 (CCK-B) [nM] | IC50 (CCK-A; rat pancreas cell membranes, read-out: activity in binding experiment on CCK-A receptors prepared from the cell membranes of rat pancreas) [nM] | IC50 (CCK-A; [3]) [nM] | CCK-B/CCK-A (CCK-A) | Structure (SMILES) | IC50 [1, 2] [nM] | IC50 ([1]; extracted guinea pig ileum, read-out: IC50 with respect to the extracted guinea pig ileum (in vitro)) [nM]
69000 | – | 37 | 1865 | O=C(N[C@@H](CCn1nncc1C(=O)O)C(=O)N1CCN(C(c2ccccc2)c2ccccc2)CC1)c1cc2ccccc2[nH]1 [Compound 24-3, (S)-1-[4-(5-carboxy-1,2,3-triazol-1-yl)-2-(indol-2-yl)carbonylamino]butyryl-4-diphenylmethylpiperazine] | 120 | –
13000 | – | 560 | 23 | O=C(N[C@@H](CSc1nccnc1C(=O)O)C(=O)N1CCN(C(c2ccccc2)c2ccccc2)CC1)c1cc2ccccc2[nH]1 [Compound 17-3, (R)-1-[3-(3-carboxypyrazin-2-yl)thio-2-(indol-2-yl)carbonylamino)propionyl-4-diphenylmethylpiperazine] | 7.2 | 7.2
10000 | – | 16 | 625 | O=C(N[C@@H](CCc1ocnc1C(=O)O)C(=O)N1CCN(C(c2ccccc2)c2ccccc2)CC1)c1cc2ccccc2[nH]1 [Compound 26-5, (S)-1-[4-(4-carboxyoxazol-5-yl)-2-(indol-2-yl)carbonylamino]butyryl-4-diphenylmethylpiperazine] | 17 | –
8800 | – | 30 | 293 | CC(C)C(C(C)C)N1CCN(C(=O)[C@H](CSc2ncccc2C(=O)O)NC(=O)c2cc3ccccc3[nH]2)CC1 [Compound 15-4, (R)-1-[3-(3-carboxypyridin-2-yl)thio-2-(indol-2-yl)carbonylamino]propionyl-4-diisopropylmethylpiperazine] | 120 | –
